Patent US9977024B2, “Targeted covalent probes and inhibitors of proteins containing redox-sensitive cysteines” (THE SCRIPPS RESEARCH INSTITUTE, priority 2012, dated 2018)
Entries after “also recorded” stand apart in the source; their conditions may differ.

Columns and labels:
A431 and HeLa cells = details: compared to DAz-2, identical conditions; cited from earlier work
GAPDH = GAPDH (Homo sapiens, UniProt P04406); experiment: In vitro probe labeling of oxidized recombinant protein, click chemistry and Western blot; type: binding; details: H2O2 1.5 eq, probe 1 hour
Method: (§1) Cell labeling western blot assays were performed using WT PJ3H-PTP1B purified from E. coli that was cloned into a mammalian expression plasmid. Recombinant PTP1B was expressed and purified from BL21AI cells. Recombinant proteins were labeled with respective equivalences of hydrogen peroxide (PTP1B, 10 eq; Gpx3 & GAPDH, 1.5 eq) in the presence of the indicated concentrations of sulfenic acid probes for 1 hour at room temperature with constant rocking Excess probe was removed by size-exclusion chromatography. Probe modified proteins were functionalized with a biotin reporter tag through the bioorthogonal Huisgen [3+2] Cycloaddition (“click chemistry”) then analyzed by Western blot.

GPX3 = experiment: as above; type: binding; details: H2O2 1.5 eq, probe 1 hour
Method: as §1

oxidized PTP1B = biological target: T1, oxidized PTP1B (Homo sapiens, UniProt P18031); experiment: Adduct formation with oxidized PTP1B, mass spectroscopy analysis; type: binding; details: adduct seen by mass spectroscopy analysis;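 further: detection of covalent adducts formed between each compound and oxidized PTP1B, assessed by mass spectroscopy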
T1 sequence (P18031 1-435): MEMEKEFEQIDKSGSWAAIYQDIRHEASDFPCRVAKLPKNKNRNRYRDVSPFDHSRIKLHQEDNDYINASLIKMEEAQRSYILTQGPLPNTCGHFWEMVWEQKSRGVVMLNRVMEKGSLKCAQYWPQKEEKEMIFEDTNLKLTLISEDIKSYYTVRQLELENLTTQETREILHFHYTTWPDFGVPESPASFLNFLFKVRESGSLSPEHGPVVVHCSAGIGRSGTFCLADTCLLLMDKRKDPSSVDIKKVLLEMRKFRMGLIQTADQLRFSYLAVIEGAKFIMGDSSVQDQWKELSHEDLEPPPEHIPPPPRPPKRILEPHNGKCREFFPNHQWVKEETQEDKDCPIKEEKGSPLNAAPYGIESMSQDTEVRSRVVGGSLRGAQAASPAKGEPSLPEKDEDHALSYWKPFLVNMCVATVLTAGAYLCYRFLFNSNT
Description: In further embodiments of the method, a fragment of the target protein may be used instead of the entire target protein. Certain embodiments may be directed to the binding between the compound and the target protein in the samples which may form a covalent adduct between the compound and the target protein, and the quantity of covalent adducts may be measured and compared in the samples. Any suitable assay for measuring the quantity of binding, or quantity of covalent adducts, in the two samples may be used with this method. For example, binding between the compound and the target protein may be detected using mass spectroscopy, fluorescence assays, and/or chromatography techniques. The chromatography techniques may include, but are not limited to, high-performance liquid chromatography. Further, binding between the compound and target protein may be detected using a combination of assays, for example, a combination of liquid chromatography and mass spectroscopy. The method may also be carried out in live and intact cells to determine a compound's reactivity with oxidized forms of the target protein in live cells. In certain embodiments, the potency of the compound is determined based on the degree of reduction of the quantity of adducts formed in the first sample compared with the quantity of adducts formed in the control sample, in a proportion to the quantity of compound used. In further embodiments, the potency of the compound is determined by calculating a ratio of the number of adducts formed in the first sample compared to the number of adducts formed in the control sample. A ratio of one compound can be compared directly to a ratio for another compound.
The degree of potency of the compound may be based on the degree of reduction of the quantity of adducts formed in a first sample compared with the quantity of adducts formed in the control sample in proportion to the quantity of compound used.

PTP1B = biological target: T2, PTP1B (Homo sapiens, UniProt P18031); experiment: PTP assay, 4-MUP fluorescence; type: biochemical; details: FIG. 20 fluorescence assay, percent activity
T2 sequence (P18031 1-435): T1 sequence (P18031 1-435)
Method: as §1
The PTP assay included PTP that was prepared up to 100 nM in 32 mM HEPES, pH 7.2, 5 mM NaCl, 2.5 mM EDTA, 0.83% glycerol, 0.02% Triton X-100, and 0.002% Brij-35. The protein was dispensed to a black ckear-bottomed 96-well microplate followed by the addition of redox-based probes or DMSO and allowed to incubate for 15 minutes at 25° C. The assay was initiated with the addition of 4-methylumbelliferyl phosphate (4-MUP), and the formation of fluorescent product was measured with an excitation wavelength of 358 nm and emission wavelength of 449 nm.

[1] = Dipeptide sulfenic acid model, reaction rate
[2] = Microsome stability, mouse liver microsomes; type: in vitro ADME; details: read-out: Microsome Stability Mouse t1/2
[3] = Plasma stability in mice (20 mg/kg IP); type: in vivo; details: mouse, intraperitoneal
Method: Plasma stability of drug candidates may be essential for maintaining acceptable drug concentration and half-life in order to achieve desirable pharmacological effects. Compounds 1a to 5a were evaluated for plasma stability in mice with PD168393 as the reference. […] At a time point of 24 hours, Compounds 1a-5a and PD168393 were almost completely degraded.

in vitro = details: human, microsomes
[4] = Microsome stability, human liver microsomes

Sequence of GAPDH (P04406 whole entry, species assumed): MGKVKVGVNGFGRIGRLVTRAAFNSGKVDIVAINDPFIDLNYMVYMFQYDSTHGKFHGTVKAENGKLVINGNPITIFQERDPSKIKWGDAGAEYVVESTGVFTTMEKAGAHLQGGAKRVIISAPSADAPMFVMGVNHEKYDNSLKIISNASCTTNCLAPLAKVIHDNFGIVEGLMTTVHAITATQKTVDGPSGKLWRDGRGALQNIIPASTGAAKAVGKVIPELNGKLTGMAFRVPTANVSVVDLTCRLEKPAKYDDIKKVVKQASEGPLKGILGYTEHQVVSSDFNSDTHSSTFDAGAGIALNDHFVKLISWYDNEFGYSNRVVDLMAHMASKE

Row | SMILES | REACTIVITY WITH OXIDIZED PTP1B (oxidized PTP1B) | further results
1 | C#CCCCC1CCC(=O)CC1=O (stereo not drawn) [DYn-2] | – | total signal and signal ratio of cell labeling (A431 and HeLa cells): greater total signal and signal ratio compared to DAz-2
2 | C#CCCCNC(=O)C1CC(=O)CC(=O)C1 [Compound 1] | – | preferential detection of control protein GAPDH (GAPDH): no preferential detection; preferential detection of control protein GPX3 (GPX3): no preferential detection
3 | CN1C(=O)CC(=O)c2ccccc21 | No Adduct | –
4 | C#CCCCNC(=O)c1ccc(-c2ccc(NC(=O)C3CC(=O)CC(=O)C3)cc2)cc1 [Compound 3] | – | IC50 (PTP1B): ~250 µM
5 | O=C1CN(c2ccccc2)S(=O)(=O)C1 | No adduct | –
6 | CC1(C)CC(=O)CC(=O)C1 [dimedone, reference compound] | not reactive enough to trap the sulfenic acid in PTP1B as an observable adduct; also recorded: no adduct | rate constant for reaction in the dipeptide model (pseudo first-order) [1]: 1 min⁻¹
7 | O=C1CS(=O)(=O)c2ccccc2N1 | No Adduct | –
8 | O=C1CC(=O)/C(=C\c2ccccc2)C1 | No adduct | –
9 | COc1ccc(-c2ccccc2)cc1N1CC(=O)CS1(=O)=O | No adduct | –
10 | O=C1CC(=O)N(c2cc(-c3ccccc3)ccc2O)C1 | Adduct | –
11 | O=C1CCN(c2ccccc2)C(=O)C1 | Adduct | –
12 | CC1(C)CC(=O)CC(=O)C1 [drawing 1] | No adduct | –
13 | O=C1CC(=O)c2ccccc21 | Adduct | –
14 | O=C1CCN(Cc2ccccc2)C(=O)C1 | Adduct | –
15 | CN1c2ccccc2C(=O)CS1(=O)=O | Adduct | –
16 | CN1C(=O)CS(=O)(=O)c2ccccc21 | No Adduct | –
17 | COc1ccc(-c2ccccc2)cc1CN1CC(=O)CC1=O | Adduct | –

Row | SMILES | REACTIVITY WITH OXIDIZED PTP1B (oxidized PTP1B) | further results
18 | O=C1CC(=O)N(Cc2ccccc2)C1 | Adduct | –
19 | O=C1CC(=O)N(Cc2cc(-c3ccccc3)ccc2O)C1 | Adduct | –
20 | O=C1CC(=O)c2ccccc2N1 | No Adduct | –
21 | O=C1CC(Cc2ccccc2)S(=O)(=O)C1 (stereo not drawn) | No adduct | –
22 | O=C1CC(=O)C(Cc2ccccc2)C1 (stereo not drawn) | No adduct | –
23 | O=C1C/C(=C/c2ccccc2)S(=O)(=O)C1 | No adduct | –
24 | CC(=O)CC(=O)Nc1ccc2ncnc(Nc3cccc(Br)c3)c2c1 [Compound 3a] | – | half-life [2]: 4 min; concentration at 1 h [3]: 29100 nM; concentration at 4 h [3]: 1100 nM; concentration at 8 h [3]: 100 nM; concentration at 24 h [3]: < 25 nM; half-life (in vitro): 17 min; microsomal CLint (in vitro): 39.7 µL/min/mg
25 | O=C1CN(Cc2ccccc2)S(=O)(=O)C1 | No adduct | –
26 | COc1ccc(-c2ccccc2)cc1N1CC(=O)CC1=O | Adduct | –
27 | O=C1CC(=O)N(c2ccccc2)C1 | Adduct | –
28 | O=C1CS(=O)(=O)Nc2ccccc21 | No Adduct | –
29 | C=CC(=O)Nc1ccc2ncnc(Nc3cccc(Br)c3)c2c1 [PD168393, reference compound] | – | half-life [2]: 3 min; half-life [4]: 10 min; microsomal CLint [4]: 72.4 µL/min/mg; concentration at 1 h [3]: 2000 nM; concentration at 4 h [3]: 40 nM; concentration at 8 h [3]: 50 nM; concentration at 24 h [3]: < 5 nM
30 | O=C1CS(=O)(=O)N(Cc2ccccc2)c2ccccc21 | No Adduct | –
31 | O=C1CS(=O)(=O)Cc2ccccc21 | Adduct | –
32 | O=C1CC(c2ccccc2)S(=O)(=O)C1 (stereo not drawn) | No adduct | –
33 | O=C1CS(=O)(=O)c2ccccc21 | Adduct | –
34 | O=C1CC(=O)C(c2ccccc2)C1 (stereo not drawn) | No adduct | –
